Laboratory results published in PubChem BioAssay (NCI).
Where “and” joins values, the source holds several entries; their conditions need not be identical. Equal entries are not always repeated.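 Grown in 96-well plates, cells were treated for 48 hours with each compound at five concentrations. Insufficient inhibition: endpoint recorded as highest concentration tested. GI50 = concentration required for 50% inhibition of growth. TGI denotes the concentration required for complete inhibition of growth.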

How the values were obtained:
Experiment in all cases: NCI tumour cell line growth inhibition, 48 h
ACHN renal = tested on: ACHN renal
SNB-78 CNS = tested on: SNB-78 CNS
786-0 renal = tested on: 786-0 renal
XF 498 CNS = tested on: XF 498 CNS
NCI-H23 lung = tested on: NCI-H23 lung
DU-145 prostate = tested on: DU-145 prostate
SNB-19 CNS = tested on: SNB-19 CNS
HOP-92 NSCLC = tested on: HOP-92 NSCLC
EKVX NSCLC = tested on: EKVX NSCLC
UACC-257 melanoma = tested on: UACC-257 melanoma
M14 melanoma = tested on: M14 melanoma
NCI-H226 lung = tested on: NCI-H226 lung
LOX IMVI melanoma = tested on: LOX IMVI melanoma
KM20L2 colon = tested on: KM20L2 colon
HCT-15 colon = tested on: HCT-15 colon
MOLT-4 leukemia = tested on: MOLT-4 leukemia
LXFL 529 NSCLC = tested on: LXFL 529 NSCLC
OVCAR-8 ovarian = tested on: OVCAR-8 ovarian
MDA-MB-435 = tested on: MDA-MB-435
BT-549 breast = tested on: BT-549 breast
HCC-2998 colon = tested on: HCC-2998 colon
A549 NSCLC = tested on: A549 NSCLC
M19-MEL melanoma = tested on: M19-MEL melanoma
PC-3 prostate = tested on: PC-3 prostate
SK-MEL-5 melanoma = tested on: SK-MEL-5 melanoma
COLO 205 colon = tested on: COLO 205 colon
RXF 393 renal = tested on: RXF 393 renal
NCI/ADR-RES ovarian = tested on: NCI/ADR-RES ovarian
HS 578T breast = tested on: HS 578T breast
TK-10 renal = tested on: TK-10 renal
MDA-MB-231 breast = tested on: MDA-MB-231 breast
HOP-18 NSCLC = tested on: HOP-18 NSCLC
SK-MEL-2 melanoma = tested on: SK-MEL-2 melanoma
UO-31 renal = tested on: UO-31 renal
SNB-75 CNS = tested on: SNB-75 CNS
NCI-H460 lung = tested on: NCI-H460 lung
P388/ADR leukemia = tested on: P388/ADR leukemia
MDA-N = tested on: MDA-N
HT29 colon = tested on: HT29 colon
SW-620 colon = tested on: SW-620 colon
SF-539 CNS = tested on: SF-539 CNS
OVCAR-5 ovarian = tested on: OVCAR-5 ovarian
OVCAR-3 ovarian = tested on: OVCAR-3 ovarian
CAKI-1 renal = tested on: CAKI-1 renal
UACC-62 melanoma = tested on: UACC-62 melanoma
T-47D breast = tested on: T-47D breast
A498 renal = tested on: A498 renal
SF-295 CNS = tested on: SF-295 CNS
HOP-62 NSCLC = tested on: HOP-62 NSCLC
RPMI-8226 leukemia = tested on: RPMI-8226 leukemia
MALME-3M melanoma = tested on: MALME-3M melanoma
SK-MEL-28 melanoma = tested on: SK-MEL-28 melanoma
HL-60(TB) leukemia = tested on: HL-60(TB) leukemia
K-562 leukemia = tested on: K-562 leukemia
DLD-1 colon = tested on: DLD-1 colon
SN12K1 renal = tested on: SN12K1 renal
SN12C renal = tested on: SN12C renal
DMS 114 small cell lung = tested on: DMS 114 small cell lung

Which GI50 (ACHN renal) does the source give for `CC[C@H]1CN2CCc3cc(OC)c(OC)cc3[C@@H]2C[C@@H]1C[C@H]1NCCc2cc(O)c(OC)cc21` here?
The GI50 was 22.1 nM and < 11.5 nM.

What about the TGI (ACHN renal) of the same molecule?
Its TGI is 75.8 nM.

And the GI50 (SNB-78 CNS)?
Its GI50 is 26.6 nM and 50.2 nM.

What about the GI50 (786-0 renal) of the same molecule?
Its GI50 is 7.14 nM.

And the TGI (786-0 renal)?
The TGI was 38.1 nM.

And the GI50 (XF 498 CNS)?
Its GI50 is 25 nM.

What about the TGI (XF 498 CNS) of the same molecule?
Its TGI is 38.8 nM.

And the TGI (NCI-H23 lung)?
The TGI was 58.4 nM and 115 nM.

And the GI50 (DU-145 prostate)?
Its GI50 is 23.3 nM.

What about the TGI (DU-145 prostate) of the same molecule?
The TGI was 63.7 nM and 137 nM.

And the TGI (SNB-19 CNS)?
The TGI was 97.7 nM and 27.1 nM.

What about the TGI (HOP-92 NSCLC) of the same molecule?
Its TGI is 74.2 nM and < 17.6 nM.

And the TGI (EKVX NSCLC)?
The TGI was 77.9 nM and 34.4 nM and 32.2 nM.

And the TGI (UACC-257 melanoma)?
The TGI was 104 nM and 346 nM.

And the GI50 (M14 melanoma)?
Its GI50 is 7.87 nM.

And the TGI (M14 melanoma)?
The TGI was 22.2 nM and 15 nM.

What about the TGI (NCI-H226 lung) of the same molecule?
Its TGI is 59.3 nM and 28.5 nM.

And the GI50 (LOX IMVI melanoma)?
Its GI50 is 4.37 nM.

And the TGI (LOX IMVI melanoma)?
The TGI was 13.4 nM.

What about the TGI (KM20L2 colon) of the same molecule?
Its TGI is 30.2 nM and 136 nM.

What about the TGI (HCT-15 colon) of the same molecule?
The TGI was 373 nM and 557 nM.

What about the TGI (MOLT-4 leukemia) of the same molecule?
The TGI was 74 nM and 323 nM.

What about the GI50 (LXFL 529 NSCLC) of the same molecule?
Its GI50 is 11.8 nM.

And the TGI (OVCAR-8 ovarian)?
Its TGI is 51.9 nM and < 32.3 nM and 165 nM.

And the GI50 (MDA-MB-435)?
Its GI50 is 18.3 nM.

And the TGI (MDA-MB-435)?
The TGI was 37.7 nM and 156 nM.

What about the GI50 (BT-549 breast) of the same molecule?
The GI50 was 42.2 nM and 48.5 nM.

What about the TGI (BT-549 breast) of the same molecule?
The TGI was 298 nM.

And the TGI (HCC-2998 colon)?
Its TGI is 48.4 nM and 47.2 nM.

And the TGI (A549 NSCLC)?
The TGI was 65.2 nM and 52.7 nM and 355 nM.

And the TGI (M19-MEL melanoma)?
The TGI was 49.2 nM and 17.8 nM and 87.6 nM.

What about the GI50 (PC-3 prostate) of the same molecule?
The GI50 was 24.3 nM.

And the TGI (SK-MEL-5 melanoma)?
The TGI was 42.4 nM and 15.7 nM and 114 nM.

And the TGI (COLO 205 colon)?
Its TGI is 18.7 nM.

And the TGI (RXF 393 renal)?
The TGI was 51.8 nM and 71.7 nM.

And the TGI (NCI/ADR-RES ovarian)?
Its TGI is > 100000 nM and 10700 nM.

And the GI50 (HS 578T breast)?
Its GI50 is 13.8 nM.

And the TGI (HS 578T breast)?
The TGI was 53.9 nM.

What about the GI50 (TK-10 renal) of the same molecule?
Its GI50 is 27.8 nM and < 12.8 nM.

What about the TGI (TK-10 renal) of the same molecule?
The TGI was 64.4 nM.

What about the GI50 (MDA-MB-231 breast) of the same molecule?
Its GI50 is 9.01 nM.

And the GI50 (HOP-18 NSCLC)?
Its GI50 is 28.4 nM and 130 nM.

What about the TGI (HOP-18 NSCLC) of the same molecule?
Its TGI is 793 nM.

What about the TGI (SK-MEL-2 melanoma) of the same molecule?
Its TGI is 49.3 nM and 29.4 nM and 53.2 nM.

And the TGI (UO-31 renal)?
The TGI was 150 nM and 1170 nM.

What about the GI50 (SNB-75 CNS) of the same molecule?
Its GI50 is 15.5 nM and 25 nM.

And the TGI (SNB-75 CNS)?
Its TGI is 73.5 nM and 147 nM and 94.4 nM.

And the TGI (NCI-H460 lung)?
Its TGI is 58.6 nM and 65.1 nM and 186 nM.

And the GI50 (P388/ADR leukemia)?
The GI50 was 60.9 nM.

What about the TGI (P388/ADR leukemia) of the same molecule?
The TGI was 29600 nM.

What about the GI50 (MDA-N) of the same molecule?
Its GI50 is 12.7 nM.

And the TGI (MDA-N)?
Its TGI is 35.4 nM and 141 nM.

What about the TGI (HT29 colon) of the same molecule?
The TGI was 55.1 nM and 17.1 nM and 47 nM.

What about the TGI (SW-620 colon) of the same molecule?
The TGI was 58.5 nM and < 21.2 nM and 190 nM.

What about the TGI (SF-539 CNS) of the same molecule?
Its TGI is 64.8 nM and < 23.7 nM and 51.1 nM.

What about the TGI (OVCAR-5 ovarian) of the same molecule?
Its TGI is 75.1 nM and 503 nM.

What about the TGI (OVCAR-3 ovarian) of the same molecule?
Its TGI is 77.4 nM and 287 nM.

What about the TGI (CAKI-1 renal) of the same molecule?
The TGI was 84.7 nM and 375 nM.

And the TGI (UACC-62 melanoma)?
Its TGI is 72.5 nM and 24.7 nM and 105 nM.

What about the GI50 (T-47D breast) of the same molecule?
Its GI50 is 22 nM.

And the TGI (T-47D breast)?
Its TGI is 77.6 nM.

And the GI50 (A498 renal)?
Its GI50 is 16.5 nM and 25 nM.

What about the TGI (A498 renal) of the same molecule?
The TGI was 46.1 nM and 58.3 nM.

What about the TGI (SF-295 CNS) of the same molecule?
The TGI was 67.4 nM and 38.5 nM and 153 nM.

And the GI50 (HOP-62 NSCLC)?
Its GI50 is 24.5 nM and 29.4 nM.

What about the TGI (HOP-62 NSCLC) of the same molecule?
The TGI was 96.7 nM and 735 nM and 130 nM.

And the TGI (RPMI-8226 leukemia)?
Its TGI is 77.9 nM and 54.2 nM.

And the TGI (MALME-3M melanoma)?
The TGI was 79.5 nM and 355 nM and 265 nM.

What about the TGI (SK-MEL-28 melanoma) of the same molecule?
The TGI was 67.8 nM and 48.7 nM and 266 nM.

What about the TGI (HL-60(TB) leukemia) of the same molecule?
The TGI was 40.8 nM and 31 nM.

What about the TGI (K-562 leukemia) of the same molecule?
The TGI was 2650 nM.

What about the TGI (DLD-1 colon) of the same molecule?
The TGI was 45.4 nM and 356 nM.

What about the GI50 (SN12K1 renal) of the same molecule?
The GI50 was 25 nM.

What about the TGI (SN12K1 renal) of the same molecule?
Its TGI is 191 nM.

And the TGI (SN12C renal)?
The TGI was 78.7 nM and 552 nM.

What about the TGI (DMS 114 small cell lung) of the same molecule?
The TGI was 24.7 nM and 37.3 nM.
